Columns and labels:
Type in all cases: in vivo
corn (Zea mays) [1] = assay: Test G Post-Emergence Protocol; settings: Zea mays, post-emergence, 312 h, read-out: Corn damage rating; for plant injury at 15.625 g/ha: 15.625 g ai/ha, evaluated after 13 days (100=total damage to plant; 0=no damage to plant); for plant injury at 62.5 g/ha: 62.5 g ai/ha; for plant injury at 62.5 g/ha / plant injury at 250 g/ha: evaluated after 13 days, 100=total damage to plant, 0=no damage to plant; for plant injury at 250 g/ha: 250 g ai/ha
In short: (§1)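 Sow in soil; grow 8 d (24/16 °C, 14 h light, 65% humidity); spray 15.625/62.5/250 g/ha in acetone:water 50:50 + 0.5% Tween 20; grow on, water twice daily; score damage 0–100 at 13 d.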

[2] = tested on: ivy-leaved morning glory (Ipomoea hederacea); assay: Test G Post-Emergence Protocol; settings: Ipomoea, post-emergence, 312 h, read-out: Morningglory, Ivy-leaved damage rating; for pest or weed control at 15.625 g/ha: 15.625 g ai/ha, evaluated after 13 days (100=total damage to plant; 0=no damage to plant); for pest or weed control at 62.5 g/ha: 62.5 g ai/ha; for pest or weed control at 62.5 g/ha / pest or weed control at 250 g/ha: evaluated after 13 days, 100=total damage to plant, 0=no damage to plant; for pest or weed control at 250 g/ha: 250 g ai/ha
In short: as §1

[3] = tested on: redroot pigweed (Amaranthus retroflexus); assay: Test G Post-Emergence Protocol; settings: Amaranthus retroflexus, post-emergence, 312 h, read-out: Pigweed, Redroot damage rating; for pest or weed control at 15.625 g/ha: 15.625 g ai/ha, evaluated after 13 days (100=total damage to plant; 0=no damage to plant); for pest or weed control at 62.5 g/ha: 62.5 g ai/ha; for pest or weed control at 62.5 g/ha / pest or weed control at 250 g/ha: evaluated after 13 days, 100=total damage to plant, 0=no damage to plant; for pest or weed control at 250 g/ha: 250 g ai/ha
In short: as §1

[4] = tested on: barnyardgrass (Echinochloa crus-galli); assay: Test G Post-Emergence Protocol; settings: Echinochloa crus-galli, post-emergence, 312 h, read-out: Barnyardgrass damage rating; for pest or weed control at 15.625 g/ha: 15.625 g ai/ha, evaluated after 13 days (100=total damage to plant; 0=no damage to plant); for pest or weed control at 62.5 g/ha: 62.5 g ai/ha; for pest or weed control at 62.5 g/ha / pest or weed control at 250 g/ha: evaluated after 13 days, 100=total damage to plant, 0=no damage to plant; for pest or weed control at 250 g/ha: 250 g ai/ha
In short: as §1

[5] = tested on: velvetleaf (Abutilon theophrasti); assay: Test G Post-Emergence Protocol; settings: Abutilon theophrasti, post-emergence, 312 h, read-out: Velvetleaf damage rating; for pest or weed control at 15.625 g/ha: 15.625 g ai/ha, evaluated after 13 days (100=total damage to plant; 0=no damage to plant); for pest or weed control at 62.5 g/ha: 62.5 g ai/ha; for pest or weed control at 62.5 g/ha / pest or weed control at 250 g/ha: evaluated after 13 days, 100=total damage to plant, 0=no damage to plant; for pest or weed control at 250 g/ha: 250 g ai/ha
In short: as §1

[6] = tested on: giant foxtail (Setaria faberi); assay: Test G Post-Emergence Protocol; settings: Setaria faberi, post-emergence, 312 h, read-out: Foxtail, Giant damage rating; for pest or weed control at 15.625 g/ha: 15.625 g ai/ha, evaluated after 13 days (100=total damage to plant; 0=no damage to plant); for pest or weed control at 62.5 g/ha: 62.5 g ai/ha; for pest or weed control at 62.5 g/ha / pest or weed control at 250 g/ha: evaluated after 13 days, 100=total damage to plant, 0=no damage to plant; for pest or weed control at 250 g/ha: 250 g ai/ha
In short: as §1

corn (Zea mays) [7] = assay: Test G Pre-Emergence Protocol; settings: Zea mays, pre-emergence, 312 h, evaluated after 13 days; for plant injury at 15.625 g/ha: 15.625 g ai/ha; for plant injury at 15.625 g/ha / plant injury at 250 g/ha: read-out: Corn damage rating (100=total damage to plant; 0=no damage to plant); for plant injury at 62.5 g/ha: 62.5 g ai/ha, 100=total damage to plant, 0=no damage to plant, read-out: Corn damage rating; for plant injury at 250 g/ha: 250 g ai/ha
In short: (§2)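 Seeds were sown in standard soil and kept one day in a glasshouse (24/16° C day/night, 14 h light, 65% humidity), then sprayed with compound in acetone/water (50:50) containing 0.5% Tween 20 at 15.625, 62.5 or 250 g/ha. Damage was scored after 13 days (0 = none, 100 = total).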

[8] = tested on: ivy-leaved morning glory (Ipomoea hederacea); assay: Test G Pre-Emergence Protocol; settings: Ipomoea, pre-emergence, 312 h, evaluated after 13 days; for pest or weed control at 15.625 g/ha: 15.625 g ai/ha; for pest or weed control at 15.625 g/ha / pest or weed control at 250 g/ha: read-out: Morningglory, Ivy-leaved damage rating (100=total damage to plant; 0=no damage to plant); for pest or weed control at 62.5 g/ha: 62.5 g ai/ha, 100=total damage to plant, 0=no damage to plant, read-out: Morningglory, Ivy-leaved damage rating; for pest or weed control at 250 g/ha: 250 g ai/ha
In short: as §2

[9] = tested on: redroot pigweed (Amaranthus retroflexus); assay: Test G Pre-Emergence Protocol; settings: Amaranthus retroflexus, pre-emergence, 312 h, evaluated after 13 days; for pest or weed control at 15.625 g/ha: 15.625 g ai/ha; for pest or weed control at 15.625 g/ha / pest or weed control at 250 g/ha: read-out: Pigweed, Redroot damage rating (100=total damage to plant; 0=no damage to plant); for pest or weed control at 62.5 g/ha: 62.5 g ai/ha, 100=total damage to plant, 0=no damage to plant, read-out: Pigweed, Redroot damage rating; for pest or weed control at 250 g/ha: 250 g ai/ha
In short: as §2

[10] = tested on: barnyardgrass (Echinochloa crus-galli); assay: Test G Pre-Emergence Protocol; settings: Echinochloa crus-galli, pre-emergence, 312 h, evaluated after 13 days; for pest or weed control at 15.625 g/ha: 15.625 g ai/ha; for pest or weed control at 15.625 g/ha / pest or weed control at 250 g/ha: read-out: Barnyardgrass damage rating (100=total damage to plant; 0=no damage to plant); for pest or weed control at 62.5 g/ha: 62.5 g ai/ha, 100=total damage to plant, 0=no damage to plant, read-out: Barnyardgrass damage rating; for pest or weed control at 250 g/ha: 250 g ai/ha
In short: as §2

[11] = tested on: velvetleaf (Abutilon theophrasti); assay: Test G Pre-Emergence Protocol; settings: Abutilon theophrasti, pre-emergence, 312 h, evaluated after 13 days; for pest or weed control at 15.625 g/ha: 15.625 g ai/ha; for pest or weed control at 15.625 g/ha / pest or weed control at 250 g/ha: read-out: Velvetleaf damage rating (100=total damage to plant; 0=no damage to plant); for pest or weed control at 62.5 g/ha: 62.5 g ai/ha, 100=total damage to plant, 0=no damage to plant, read-out: Velvetleaf damage rating; for pest or weed control at 250 g/ha: 250 g ai/ha
In short: as §2

[12] = tested on: giant foxtail (Setaria faberi); assay: Test G Pre-Emergence Protocol; settings: Setaria faberi, pre-emergence, 312 h, evaluated after 13 days; for pest or weed control at 15.625 g/ha: 15.625 g ai/ha; for pest or weed control at 15.625 g/ha / pest or weed control at 250 g/ha: read-out: Foxtail, Giant damage rating (100=total damage to plant; 0=no damage to plant); for pest or weed control at 62.5 g/ha: 62.5 g ai/ha, 100=total damage to plant, 0=no damage to plant, read-out: Foxtail, Giant damage rating; for pest or weed control at 250 g/ha: 250 g ai/ha
In short: as §2

Row | SMILES | plant injury at 15.625 g/ha (corn (Zea mays) [1]) | plant injury at 62.5 g/ha (corn (Zea mays) [1]) | plant injury at 250 g/ha (corn (Zea mays) [1]) | pest or weed control at 15.625 g/ha [2] | pest or weed control at 62.5 g/ha [2] | pest or weed control at 250 g/ha [2] | pest or weed control at 15.625 g/ha [3] | pest or weed control at 62.5 g/ha [3] | pest or weed control at 250 g/ha [3] | pest or weed control at 15.625 g/ha [4] | pest or weed control at 62.5 g/ha [4] | pest or weed control at 250 g/ha [4] | pest or weed control at 15.625 g/ha [5] | pest or weed control at 62.5 g/ha [5] | pest or weed control at 250 g/ha [5] | pest or weed control at 15.625 g/ha [6] | pest or weed control at 62.5 g/ha [6] | pest or weed control at 250 g/ha [6] | plant injury at 15.625 g/ha (corn (Zea mays) [7]) | plant injury at 62.5 g/ha (corn (Zea mays) [7]) | other results
1 | CN1C[C@H](c2ccc(C(F)(F)F)cc2)[C@@H](C(=O)Nc2cccc(Cl)c2S(C)(=O)=O)C1=O (racemic) [Compound 1661] | 0% | 0% | 0% | 0% | 0% | 0% | 0% | 20% | 40% | 0% | 20% | 10% | 0% | 0% | 10% | 0% | 60% | 60% | 0% | 0% | plant injury at 250 g/ha (corn (Zea mays) [7]): 10%; pest or weed control at 15.625 g/ha [8]: 0%; pest or weed control at 62.5 g/ha [8]: 0%; pest or weed control at 250 g/ha [8]: 10%; pest or weed control at 15.625 g/ha [9]: 0%; pest or weed control at 62.5 g/ha [9]: 0%; pest or weed control at 250 g/ha [9]: 20%; pest or weed control at 15.625 g/ha [10]: 0%; pest or weed control at 62.5 g/ha [10]: 0%; pest or weed control at 250 g/ha [10]: 0%; pest or weed control at 15.625 g/ha [11]: 0%; pest or weed control at 62.5 g/ha [11]: 0%; pest or weed control at 250 g/ha [11]: 0%; pest or weed control at 15.625 g/ha [12]: 0%; pest or weed control at 62.5 g/ha [12]: 50%; pest or weed control at 250 g/ha [12]: 80%
2 | CN1C[C@H](c2cccc(Cl)c2)[C@@H](C(=O)Nc2cnccc2C(F)(F)F)C1=O (racemic) [Compound 1772] | 0% | 0% | 60% | 0% | 30% | 50% | 0% | 0% | 10% | 0% | 0% | 30% | 0% | 0% | 30% | 10% | 60% | 80% | 0% | 0% | plant injury at 250 g/ha (corn (Zea mays) [7]): 60%; pest or weed control at 15.625 g/ha [8]: 0%; pest or weed control at 62.5 g/ha [8]: 0%; pest or weed control at 250 g/ha [8]: 60%; pest or weed control at 15.625 g/ha [9]: 0%; pest or weed control at 62.5 g/ha [9]: 0%; pest or weed control at 250 g/ha [9]: 10%; pest or weed control at 15.625 g/ha [10]: 0%; pest or weed control at 62.5 g/ha [10]: 10%; pest or weed control at 250 g/ha [10]: 80%; pest or weed control at 15.625 g/ha [11]: 0%; pest or weed control at 62.5 g/ha [11]: 0%; pest or weed control at 250 g/ha [11]: 40%; pest or weed control at 15.625 g/ha [12]: 30%; pest or weed control at 62.5 g/ha [12]: 80%; pest or weed control at 250 g/ha [12]: 90%
3 | CN1C[C@H](c2ccc(C(F)(F)F)cc2)[C@@H](C(=O)Nc2ccc[n+]([O-])c2F)C1=O (racemic) [Compound 1815] | 0% | 0% | 0% | 0% | 0% | 0% | 0% | 0% | 0% | 0% | 0% | 0% | 0% | 0% | 0% | 0% | 0% | 10% | 0% | 0% | plant injury at 250 g/ha (corn (Zea mays) [7]): 0%; pest or weed control at 15.625 g/ha [8]: 0%; pest or weed control at 62.5 g/ha [8]: 0%; pest or weed control at 250 g/ha [8]: 0%; pest or weed control at 15.625 g/ha [9]: 0%; pest or weed control at 62.5 g/ha [9]: 0%; pest or weed control at 250 g/ha [9]: 0%; pest or weed control at 15.625 g/ha [10]: 0%; pest or weed control at 62.5 g/ha [10]: 0%; pest or weed control at 250 g/ha [10]: 0%; pest or weed control at 15.625 g/ha [11]: 0%; pest or weed control at 62.5 g/ha [11]: 0%; pest or weed control at 250 g/ha [11]: 0%; pest or weed control at 15.625 g/ha [12]: 0%; pest or weed control at 62.5 g/ha [12]: 0%; pest or weed control at 250 g/ha [12]: 40%
